# BindingDB's records for doi:10.1016/j.chembiol.2010.07.018 (University of Dundee, 2010)
# Starred links: 1 amine or outer side, 2 acyl side, 3 side chain; linkers in the order of their positions; H or OH if unused. Non-standard residues stand in square brackets, D forms with d. Residues, ends and D or L forms follow the SMILES beside them. Groups on a side chain read outwards from the residue. βAsp = O=C(O)[C@H](CC(=O)[*:2])N[*:1]; NMeF = CN[C@@H](Cc1ccccc1)C(=O)O; CO = O=C([*:1])[*:2]
# Biological target: T1, Endochitinase A1 (Aspergillus fumigatus, UniProt Q873Y0)
# T1 sequence (Q873Y0 whole entry): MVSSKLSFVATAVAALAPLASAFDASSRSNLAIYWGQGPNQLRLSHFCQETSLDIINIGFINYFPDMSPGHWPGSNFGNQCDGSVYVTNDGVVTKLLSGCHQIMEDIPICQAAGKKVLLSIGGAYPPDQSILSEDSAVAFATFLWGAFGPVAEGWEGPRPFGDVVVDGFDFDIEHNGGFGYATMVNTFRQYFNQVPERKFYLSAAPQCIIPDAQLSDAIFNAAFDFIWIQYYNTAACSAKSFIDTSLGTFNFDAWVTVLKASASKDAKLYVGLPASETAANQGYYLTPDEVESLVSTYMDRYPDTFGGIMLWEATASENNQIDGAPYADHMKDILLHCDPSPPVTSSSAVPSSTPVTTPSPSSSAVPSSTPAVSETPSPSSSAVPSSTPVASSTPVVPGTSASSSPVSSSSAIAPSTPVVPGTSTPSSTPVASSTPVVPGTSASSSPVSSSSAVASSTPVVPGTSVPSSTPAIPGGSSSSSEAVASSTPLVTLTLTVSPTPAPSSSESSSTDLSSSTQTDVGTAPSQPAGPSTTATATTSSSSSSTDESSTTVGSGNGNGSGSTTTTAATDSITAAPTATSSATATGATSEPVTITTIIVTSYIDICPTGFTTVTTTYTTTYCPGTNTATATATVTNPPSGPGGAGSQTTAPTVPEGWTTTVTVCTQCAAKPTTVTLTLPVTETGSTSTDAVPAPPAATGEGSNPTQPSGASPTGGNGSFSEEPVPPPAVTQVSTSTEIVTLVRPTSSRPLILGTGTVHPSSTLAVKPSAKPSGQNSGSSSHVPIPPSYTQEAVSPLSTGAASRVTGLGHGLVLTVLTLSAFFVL
# Assay: Enzyme Inhibition Assay
# Details: pH 5.5; 37 °C
row,Structure (SMILES),IC50 [µM]
1,"CNC(=O)NC(=N)NCCC[C@@H]1NC(=O)[C@@H](C)NC(=O)C[C@@H](C(=O)O)NC(=O)C[C@@H](C(=O)O)NC(=O)[C@H](Cc2ccccc2)N(C)C1=O [(2R,5S,8S,11S,15S)-8-benzyl-2,7-dimethyl-5-[3-({[(methylcarbamoyl)amino]methanimidoyl}amino)propyl]-3,6,9,13,17-pentaoxo-1,4,7,10,14-pentaazacycloheptadecane-11,15-dicarboxylic acid] (cyclo([NMeF][βAsp][βAsp][dA]R([CO-NHMe])))",> 3800
2,"[H]/N=C(\NC)NC(=O)NC [Argifin-Derived Fragments, 1]",79
3,"CCN=C(N)NC(=O)NC [Argifin-Derived Fragments, 2]",310
4,"CCCN=C(N)NC(=O)NC [Argifin-Derived Fragments, 3]",62
5,"CCCCNC(=N)NC(=O)NC [Argifin-Derived Fragments, 4]",38
6,"CNC(=O)NC(=N)NC1CCCCC1 [Argifin-Derived Fragments, 5]",42
7,"CNC(=O)NC(N)=Nc1ccccc1 [Argifin-Derived Fragments, 6]",112
8,"CNC(=O)NC(N)=NCc1ccccc1 [Argifin-Derived Fragments, 7]",299
